Experiment [1] has as its target T1, 5-hydroxytryptamine receptor 1A (Rattus norvegicus, UniProt P19327).
T1 sequence (P19327 whole entry): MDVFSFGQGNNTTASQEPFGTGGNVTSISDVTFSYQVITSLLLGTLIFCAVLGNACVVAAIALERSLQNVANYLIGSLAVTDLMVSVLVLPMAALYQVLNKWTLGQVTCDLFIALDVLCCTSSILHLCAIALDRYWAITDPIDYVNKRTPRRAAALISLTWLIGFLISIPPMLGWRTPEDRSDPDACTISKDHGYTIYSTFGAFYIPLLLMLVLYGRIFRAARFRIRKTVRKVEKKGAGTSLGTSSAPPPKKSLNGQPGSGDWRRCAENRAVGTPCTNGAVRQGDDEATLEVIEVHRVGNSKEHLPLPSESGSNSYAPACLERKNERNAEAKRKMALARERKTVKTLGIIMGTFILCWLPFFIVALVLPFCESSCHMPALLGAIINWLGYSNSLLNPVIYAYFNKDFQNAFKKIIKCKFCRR

Experiment [2] has as its target 5-hydroxytryptamine receptor 1B (Rattus norvegicus, UniProt P28564).
In experiment [3] the target is T2, 5-hydroxytryptamine receptor 2C (Rattus norvegicus, UniProt P08909).
T2 sequence (P08909 whole entry): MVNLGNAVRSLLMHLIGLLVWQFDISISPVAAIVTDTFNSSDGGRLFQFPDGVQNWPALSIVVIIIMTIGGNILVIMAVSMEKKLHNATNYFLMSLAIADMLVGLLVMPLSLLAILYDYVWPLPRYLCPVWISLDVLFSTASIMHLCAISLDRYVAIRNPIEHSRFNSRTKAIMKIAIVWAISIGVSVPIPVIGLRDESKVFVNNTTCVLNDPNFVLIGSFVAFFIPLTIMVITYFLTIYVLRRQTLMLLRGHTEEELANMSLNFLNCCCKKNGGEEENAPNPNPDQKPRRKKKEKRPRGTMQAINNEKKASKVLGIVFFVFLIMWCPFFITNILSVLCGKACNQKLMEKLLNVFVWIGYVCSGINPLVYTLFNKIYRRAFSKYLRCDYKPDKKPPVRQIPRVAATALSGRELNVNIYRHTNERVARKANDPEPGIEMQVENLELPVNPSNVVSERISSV

The target of experiment [4] is 5-hydroxytryptamine receptor 1E (Homo sapiens, UniProt P28566).
Sequence of 5-hydroxytryptamine receptor 1E (P28566 whole entry): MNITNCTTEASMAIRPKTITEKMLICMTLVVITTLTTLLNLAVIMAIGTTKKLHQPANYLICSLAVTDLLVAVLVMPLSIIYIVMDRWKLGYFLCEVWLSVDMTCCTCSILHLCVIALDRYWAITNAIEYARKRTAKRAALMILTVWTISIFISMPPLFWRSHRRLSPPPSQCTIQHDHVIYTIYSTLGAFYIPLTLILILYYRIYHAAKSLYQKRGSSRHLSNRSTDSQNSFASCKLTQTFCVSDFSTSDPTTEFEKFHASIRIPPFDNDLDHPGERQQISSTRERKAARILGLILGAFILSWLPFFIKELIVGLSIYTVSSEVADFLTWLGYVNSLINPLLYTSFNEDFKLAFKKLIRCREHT
The target in experiment [5] is Serotonin 2 (5-HT2) receptor (Rattus norvegicus, UniProt P30994+P08909+P14842).

pKi: −log10 of the molar value.

Sequence of 5-hydroxytryptamine receptor 1B (P28564 whole entry): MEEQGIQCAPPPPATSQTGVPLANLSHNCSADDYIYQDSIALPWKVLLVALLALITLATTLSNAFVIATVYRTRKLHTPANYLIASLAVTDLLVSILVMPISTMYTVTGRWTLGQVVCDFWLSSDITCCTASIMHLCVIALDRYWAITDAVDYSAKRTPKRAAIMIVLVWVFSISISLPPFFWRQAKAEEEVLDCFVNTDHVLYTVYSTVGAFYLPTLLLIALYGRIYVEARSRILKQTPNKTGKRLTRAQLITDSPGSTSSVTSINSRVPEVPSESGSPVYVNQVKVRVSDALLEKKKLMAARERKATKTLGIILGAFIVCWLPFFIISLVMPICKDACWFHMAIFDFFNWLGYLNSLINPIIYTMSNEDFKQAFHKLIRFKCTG

One may read the pKi as the Ki on a negative log10 scale, so that one unit is a factor of ten. A low value points to a large Ki. As a reminder, the Ki is the equilibrium dissociation constant of an inhibitor or competing ligand from its target. Read a high Ki as a looser hold on the target. For `COc1ccc2[nH]c(C)c(CCN)c2c1`, the pKi is 5.89 in experiment [1], 6.10 in experiment [2], 6.16 in experiment [3] and less than 5.00 in experiment [4]. This molecule also displayed a Ki in experiment [5] greater than 10 µM.

Regarding `Cc1[nH]c2ccc(O)cc2c1CCN`, the pKi in experiment [1] is 5.92; in experiment [2], 6.28; in experiment [3] it was 6.19; in experiment [4], less than 5.00. Also, the Ki in experiment [5] was greater than 10 µM.

Source of the values: ChEMBL document CHEMBL1124834, “5-HT1 and 5-HT2 binding profiles of the serotonergic agents alpha-methylserotonin and 2-methylserotonin” (J Med Chem, 1990).
